One block for each molecule: values may come before it. Where no end group is shown, it is not given here.
Legend:
[1] = system: U87MG cells; experiment: Measurement of cellular internalization of AF488-labeled proteins; assay type: cell-based; conditions: AF488-labeled protein, 37° C., 4 h, surface signal quenched
Procedure: The cleavage of the Val-Cit-PAB linker and the subsequent release and mechanism of action of MMAE are dependent upon intracellular delivery. Thus, it was important to validate that each construct internalized efficiently. Internalization was measured by incubating Alexa Fluor 488-conjugated proteins with cells at 37° C. After a 4 h incubation, surface-bound protein was quenched using an anti-AF488 antibody, that binds any exposed fluorophores.
U87MG cells were seeded in 24-well plates (Corning) at a density of 5×10^4 cells per well. After allowing cells to settle for >4 h, media was replaced with fresh media containing 200 nM of Alexa Fluor 488-labeled proteins and supplemented with 1 mM MnCl2. Cells were then incubated at 37° C. for 4 h. Cells were washed with 500 μL of PBS and detached using 20 μL of 0.05% trypsin/EDTA. After neutralizing trypsin and transferring each well into an Eppendorf tube, cells were washed with 800 μL of cold PBSA. Next, cells were pelleted and resuspended on ice in 50 μL of a 1:200 dilution of anti-Alexa Fluor 488 antibody (Invitrogen) to quench surface-bound protein. Cells were washed again with 800 μL of PBSA and the fluorescence of internalized protein was measured by flow cytometry as described above.

[2] = system: U87MG hip xenografts; experiment: Therapeutic efficacy study, once weekly for four weeks, tumors implanted with Matrigel; assay type: in vivo, Nu/Nu mice; conditions: once weekly for 4 weeks
Procedure: To further investigate each compound, several changes were made to the experimental design. Because of the KDC's rapid systemic clearance, a significant portion of the injected dose is likely lost and the ˜0.6 mg/kg dose was therefore increased substantially. Because dosages for chemotherapeutics are conventionally determined as mass of chemotherapeutic per patient body surface area, a more clinically relevant comparison of equal mass was selected over an equimolar comparison. Next, a once-per-week dosing regimen was selected to coincide with realistic clinical dosing considerations. Finally, tumors were implanted with Matrigel matrix to increase tumor growth and with only 2.5×10^6 cells per injection to decrease initial tumor necrosis. Mice bearing U87MG hip xenografts were equally distributed into the following treatment groups with intravenous injections given once weekly for 4 weeks: KDC, KFDC, KADC, unconjugated proteins, or a PBS control. Each drug conjugate was also evaluated at a low dose and a high dose.
For tumor cell implantation, female Nu/Nu mice (Charles River Laboratory) were anesthetized with 2.5% isoflurane by inhalation with a flow rate of 1 L/min. A volume of 200 μL of 50/50 PBS/Matrigel (Corning), containing 2.5×10^6 U87MG cells, was injected subcutaneously into the right flank. Tumors were allowed to grow for 7 days until reaching a size of approximately 35 mm^2. For therapeutic efficacy studies, mice were binned into experimental groups to ensure equivalent average tumor sizes and starting body weights across all groups.
Mice bearing U87MG flank xenografts, as described above, were injected intravenously with PBS, KDC, KFDC, KADC, or controls proteins. Treatments were administered once per week for four weeks. Tumors were measured three times per week using digital calipers and animal weights were recorded on each dosing day to monitor for potential weight loss as a measure of compound toxicity. Tumor area was calculated as the longest axis of the tumor multiplied by the perpendicular axis. Euthanasia criteria were defined as a tumor area greater than 150 mm^2 or a loss of 20% body weight.

[3] = system: U87MG cells; experiment: Direct binding of Alexa Fluor 488-labeled proteins to U87MG cells (flow cytometry); conditions: direct binding of AF488-labeled protein to U87MG cells, 3 h at 4° C.
Procedure: (§1) The binding affinity of the constructs described in Example 1 were measured using U87MG glioblastoma cells. Drug-free protein affinities were measured directly using Alexa Fluor 488-conjugaed proteins and drug conjugates were measured via a competition binding assay displacing Alexa Fluor 488-labeled K. All constructs tested bound to U87MG cells with low-nanomolar affinity (FIG. 9A-B).
(§2) U87MG cells were detached using Enzyme-Free Cell Dissociation Buffer (Gibco). Next, 4×10^4 cells were incubated with varying concentrations (0.01-200 nM) of Alexa Fluor 488 labeled proteins in Integrin Binding Buffer (IBB; 25 mM Tris pH 7.4, 150 mM NaCl, 2 mM CaCl2), 1 mM MgCl2, 1 mM MnCl2, and 0.1% bovine serum albumin (BSA)) for 3 h at 4° C. to minimize internalization. Cells were pelleted and washed twice with 800 μL of PBSA (phosphate buffered saline containing 0.1% bovine serum albumin) and the fluorescence of remaining surface-bound protein was measured by flow cytometry using a Guava EasyCyte 8HT instrument (EMD Millipore). Resulting data were evaluated using FlowJo software (TreeStar Inc) and equilibrium dissociation constants (Kd) were determined using Prism software (GraphPad). Error bars represent the standard deviation of experiments performed in triplicate.

[4] = system: U87MG cells; experiment: Indirect (competition) binding assay displacing Alexa Fluor 488-labeled knottin; conditions: competing off 1 nM AF488-2.5F on U87MG cells
Procedure: as §1
as §2, with “1 nM” for “varying concentrations (0.01-200 nM)”, “knottin as a competitor and varying concentrations (0.01-500 nM) of KDC, KFDC, or KADC” for “proteins”, “IBB” for “Integrin Binding Buffer (IBB; 25 mM Tris pH 7.4, 150 mM NaCl, 2 mM CaCl2), 1 mM MgCl2, 1 mM MnCl2, and 0.1% bovine serum albumin (BSA))”

[5] = target: integrin receptors on U87MG glioblastoma cells; experiment: flow cytometry, direct binding of AF488-labelled protein to U87MG cells, 3 h at 4 C

Molecule: KFc: EETI 2.5F genetically fused to a human IgG1 Fc domain (GCPRPRGDNPPLTCSQDSDCLAGCVCGPNGFCG; ends and bridges not checked; also: fused to human IgG1 Fc domain (dimerising))
internalization [1]: from least to greatest, K, KFc, then KAb
tumor growth with unconjugated protein [2]: indistinguishable from PBS control mice
Kd [3]: 2.5 nM
Ki [4]: 1.2 nM

Kd [5]: 2.5 nM
Molecule: knottin-Fc fusion (KFc): EETI 2.5F genetically fused to a human IgG1 Fc domain, Alexa Fluor 488-labeled

Kd [5]: 2.3 nM
B1: knottin-Ab fusion (KAb): EETI 2.5F genetically fused to the N-terminus of a full-length human IgG1 antibody against an irrelevant target (anti-FITC or … (peptide, part only; not given: carrier IgG1 antibody chains, part only)
chain, part: GCPRPRGDNPPLTCSQDSDCLAGCVCGPNGFCG
modifications: cysteine pairing not given here; also: genetic fusion to N-terminus of full-length human IgG1 antibody, Alexa Fluor 488 label, site not given here

— US20220211861A1, “DRUG CONJUGATES AND METHODS OF USING SAME” (The Board of Trustees of the Leland Staford Junior …, priority 2019, published 2022)
